Assay results taken from patent US9326973B2, “Hepatitis C virus inhibitors” (priority 2012, dated 2016).

test system: HCV replicon, genotype-1a variant with glutamine 30 changed to glutamate in the NS5A protein; assay: microbe, parasite or virus in culture; type: cell-based, HCV genotype 1a; settings: HCV replicon genotype 1a Q30E (Q→E) variant; test compound titrated with an NS5A-targeting compound (BMS-790052 fixed at 200 nM); ranking of synergist activity
How it was run: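 Synergy was assessed by combining several fixed amounts of an NS5A-targeting compound with a titration of the second compound of interest.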

| Structure (SMILES) | Fold-Synergistic 1a (Q30E) [fold] |
| --- | --- |
| CC(C)(C(=O)N[C@H](c1nc(-c2ccc(-c3ccc(-c4c[nH]c([C@@H](NC(=O)C(C)(C)C(=O)N5CC[C@H](O)C5)C(C)(C)C)n4)cc3)cc2)c[nH]1)C(C)(C)C)C(=O)N1CC[C@H](O)C1 [Compound W-152] | >100 |
| O=C(C1CCCCC1)N1CCC[C@H]1c1ncc(-c2ccc(-c3ccc(-c4cnc([C@@H]5CCCN5C(=O)C5CCCCC5)[nH]4)cc3)cc2)[nH]1 [Compound S-167] | <10 |
| CCC(C)C(=O)N1CCC[C@H]1c1ncc(-c2ccc(-c3ccc(-c4cnc([C@@H]5CCCN5C(=O)C(C)CC)[nH]4)cc3)cc2)[nH]1 (stereo partly shown) [Compound S-169] | <10 |
| CC(C)C(N[S+]([O-])C(C)(C)C)c1ncc(-c2ccc(-c3ccc(-c4cnc([C@@H](N[S+]([O-])C(C)(C)C)C(C)C)[nH]4)cc3)cc2)[nH]1 (single isomer, unassigned) [Compound Y-61] | <10 |
| C[C@H]1CCN(C(=O)C(=O)N2CCC(F)(F)CC2)C1c1nc(-c2ccc(-c3ccc(-c4c[nH]c([C@@H]5[C@@H](C)CCN5C(=O)C(=O)N5CCC(F)(F)CC5)n4)cc3)cc2)c[nH]1 (stereo partly shown) [Compound W-186] | >100 |
| CC(C)[C@H](NC(=O)C1CC(=O)C1)c1nc(-c2ccc(-c3ccc(-c4c[nH]c([C@@H](NC(=O)C5CC(=O)C5)C(C)C)n4)cc3)cc2)c[nH]1 [Compound W-172] | >10 |
| CC(C)CC(=O)NC(C)(C)c1nc(-c2ccc(-c3ccc(-c4c[nH]c(C(C)(C)NC(=O)CC(C)C)n4)cc3)cc2)c[nH]1 [Compound N-26] | <10 |
| COc1cccc2c(C(=O)N3C(c4ncc(-c5ccc(-c6ccc(-c7cnc(C8C[C@H]9C[C@H]9N8C(=O)c8nc(Cl)cc9c(OC)cccc89)[nH]7)cc6)cc5)[nH]4)C[C@H]4C[C@H]43)nc(Cl)cc12 (stereo partly shown) [Compound P-49] | >100 |
| COC(=O)N[C@@H](C(=O)N[C@H](c1nc(-c2ccc(-c3ccc(-c4c[nH]c([C@@H](NC(=O)[C@H](NC(=O)OC)C(C)C)C5CCCC5)n4)cc3)cc2)c[nH]1)C1CCCC1)C(C)C [Compound N-43] | >10 |
| C=C1C[C@@H](C(=O)N[C@H](c2nc(-c3ccc(-c4ccc(-c5c[nH]c([C@@H](NC(=O)[C@@H]6CC(=C)CN6C(=O)OC(C)(C)C)C(C)C)n5)cc4)cc3)c[nH]2)C(C)C)N(C(=O)OC(C)(C)C)C1 [Compound W-89] | >100 |
| CC(C)(C)[C@H](NC(=O)C(C)(C)n1cnnn1)c1nc(-c2ccc(-c3ccc(-c4c[nH]c([C@@H](NC(=O)C(C)(C)n5cnnn5)C(C)(C)C)n4)cc3)cc2)c[nH]1 [Compound S-277] | >100 |
| CCN(CC)C(=O)C(=O)N[C@H](c1nc(-c2ccc(-c3ccc(-c4c[nH]c([C@@H](NC(=O)C(=O)N(CC)CC)C(C)(C)C)n4)cc3)cc2)c[nH]1)C(C)(C)C [Compound W-33] | >100 |
| O=C(c1ccc2ccccc2n1)N1CCC[C@H]1c1ncc(-c2ccc(-c3ccc(-c4cnc([C@@H]5CCCN5C(=O)c5ccc6ccccc6n5)[nH]4)cc3)cc2)[nH]1 [Compound S-123] | >100 |
| CCC(=O)N1CCC[C@H]1c1ncc(-c2ccc(-c3ccc(-c4cnc([C@@H]5CCCN5C(=O)CC)[nH]4)cc3)cc2)[nH]1 [Compound S-108] | <10 |
| CC(C)(C(=O)N[C@H](c1nc(-c2ccc(-c3ccc(-c4c[nH]c([C@@H](NC(=O)C(C)(C)C(=O)N5CCC(F)CC5)C(C)(C)C)n4)cc3)cc2)c[nH]1)C(C)(C)C)C(=O)N1CCC(F)CC1 [Compound W-142] | >100 |
| CC(C)(C)[C@H](NC(=O)C1CC(=O)N(c2ccccc2O)C1)c1nc(-c2ccc(-c3ccc(-c4c[nH]c([C@@H](NC(=O)C5CC(=O)N(c6ccccc6O)C5)C(C)(C)C)n4)cc3)cc2)c[nH]1 (stereo partly shown) [Compound S-265] | >100 |
